In patent US8785459B2, “Quinazoline compounds as kinase inhibitors” (Development Center for Biotechnology, priority 2011, dated 2014) one finds IC50 and inhibition data, which are given here for 17 compounds.

Each structure is given as a SMILES string.

One assay concerns MDA-MB-231. Nature of the assay: Anti-proliferative activity, CellTiter-96 assay, MDA-MB-231. The format is cell-based. Conditions: Homo sapiens, MDA-MB-231 cells, 72 hours incubation. The procedure:
(§1) Antiproliferative Activity
(§2) The anti-proliferative activities of the compounds with formula (I) and formula (II) with respect to four human cancer cell lines (A549, A375, MDA-MB-231, and COLO205) were measured using the CellTiter™-96 assay kit (Promega) following the manufacturer's instructions. In brief, the cells were maintained in DMEM containing 10% FCS and incubated at 37° C. in 5% CO2 atmosphere. Cells were plated at a density of 2000 cells/well of a 96-well plate for 24 h, then treated with different concentrations of the compounds, and incubated for another 72 hours. At the end of the incubation, CellTiter™-96 Aqueous One Solution Reagent (Promega) was added and incubated for another 4.0 hours. Cell viability was determined by measuring absorbance at 490 nm using EMax® microplate reader (Molecular Devices). Data were processed and analyzed using GraphPad Prism version 4.

A further assay deals with B-Raf (Homo sapiens (Human), UniProt P15056). As to the kind of experiment: Raf kinase assay (B-Raf), [33P] incorporation into MEK1(K97R). Conditions: for inhibition at 1 µM: 1.0 μM compound, read-out: B-Raf inhibition at 1.0 μM. The format is biochemical. In a few lines:
(§3)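 [33P] transfer to kinase-dead MEK1(K97R) substrate (500 ng) measured after 30 min at 30 °C in Tris pH 7.5 buffer containing 8 μM ATP. Enzyme inputs were 2 ng for C-Raf and 5 ng for B-Raf and B-Raf V600E. Duplicate 3-fold serial dilutions gave the half-maximal inhibitory concentration.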

A further assay relates to COLO205. Nature of the assay: Anti-proliferative activity, CellTiter-96 assay, COLO205. The format is cell-based. Conditions: Homo sapiens, COLO 205, COLO205 cells, 72 hours incubation. The protocol: as §1, §2
The subject of another assay is A549. Nature of the assay: Anti-proliferative activity, CellTiter-96 assay, A549. Conditions: Homo sapiens, A549 cells, 72 hours incubation. The format is cell-based. The procedure:
as §1, §2

A further assay deals with B-Raf (V600E) (Homo sapiens (Human), UniProt P15056, V600E). As to the kind of experiment: Raf kinase assay (B-Raf (V600E)), [33P] incorporation into MEK1(K97R). Type of assay: biochemical. In a few lines:
as §3

The target of the next assay is C-Raf (Homo sapiens (Human), UniProt P04049). As to the kind of experiment: Raf kinase assay (C-Raf), [33P] incorporation into MEK1(K97R). Type of assay: biochemical. Put shortly: as §3
C-Raf, sequence (P04049 whole entry): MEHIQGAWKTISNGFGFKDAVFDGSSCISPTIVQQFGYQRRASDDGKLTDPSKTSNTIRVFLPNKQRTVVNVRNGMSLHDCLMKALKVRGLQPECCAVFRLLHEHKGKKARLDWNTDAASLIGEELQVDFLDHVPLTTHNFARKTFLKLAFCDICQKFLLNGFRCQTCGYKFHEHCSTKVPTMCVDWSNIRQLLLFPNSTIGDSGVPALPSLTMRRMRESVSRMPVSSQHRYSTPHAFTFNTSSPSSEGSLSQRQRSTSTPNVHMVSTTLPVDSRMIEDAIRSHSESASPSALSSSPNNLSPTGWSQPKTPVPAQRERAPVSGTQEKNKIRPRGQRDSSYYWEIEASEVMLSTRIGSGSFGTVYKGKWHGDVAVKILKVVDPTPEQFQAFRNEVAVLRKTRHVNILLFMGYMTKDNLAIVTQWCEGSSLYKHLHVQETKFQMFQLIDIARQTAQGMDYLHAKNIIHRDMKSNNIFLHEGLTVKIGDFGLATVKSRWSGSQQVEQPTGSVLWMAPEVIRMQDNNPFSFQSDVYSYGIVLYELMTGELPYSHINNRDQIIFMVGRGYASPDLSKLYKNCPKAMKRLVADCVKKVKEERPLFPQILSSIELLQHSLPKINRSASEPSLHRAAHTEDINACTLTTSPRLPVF
Another assay concerns A375. As to the kind of experiment: Anti-proliferative activity, CellTiter-96 assay, A375. Conditions: Homo sapiens, A-375, A375 cells, 72 hours incubation. Type of assay: cell-based. The procedure: as §1, §2

B-Raf (V600E), sequence (P15056 whole entry V600E): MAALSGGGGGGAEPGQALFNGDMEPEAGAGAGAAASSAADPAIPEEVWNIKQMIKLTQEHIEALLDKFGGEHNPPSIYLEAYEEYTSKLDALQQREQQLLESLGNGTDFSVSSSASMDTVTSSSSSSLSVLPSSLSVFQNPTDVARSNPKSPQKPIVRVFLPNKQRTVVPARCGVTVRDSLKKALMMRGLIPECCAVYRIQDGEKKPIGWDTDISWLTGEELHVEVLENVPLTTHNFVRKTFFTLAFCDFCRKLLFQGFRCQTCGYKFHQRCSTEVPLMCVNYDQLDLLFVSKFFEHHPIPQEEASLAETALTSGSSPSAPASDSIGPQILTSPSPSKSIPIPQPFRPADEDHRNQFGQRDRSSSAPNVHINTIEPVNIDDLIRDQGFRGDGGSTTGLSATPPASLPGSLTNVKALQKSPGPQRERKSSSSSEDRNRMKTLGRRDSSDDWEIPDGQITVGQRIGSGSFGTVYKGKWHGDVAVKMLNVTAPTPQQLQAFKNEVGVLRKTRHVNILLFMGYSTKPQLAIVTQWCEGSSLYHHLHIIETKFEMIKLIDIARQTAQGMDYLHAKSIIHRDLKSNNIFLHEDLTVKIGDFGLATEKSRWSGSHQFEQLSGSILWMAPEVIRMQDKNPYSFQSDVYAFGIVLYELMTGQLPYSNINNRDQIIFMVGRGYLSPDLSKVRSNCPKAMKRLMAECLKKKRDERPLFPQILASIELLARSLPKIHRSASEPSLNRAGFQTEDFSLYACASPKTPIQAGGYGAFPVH
B-Raf, sequence (P15056 whole entry): as the sequence (P15056 whole entry V600E) above, with E600V counted along it

By IC50 is commonly meant the concentration that inhibits the measured activity by half. Low readings indicate inhibition by little substance, high ones a need for much substance. A word on the inhibition: it is the percentage by which the read-out fell short of the control. `COc1cc(-c2ccc3ncnc(Nc4cc(O)c(C)cc4F)c3c2)ccc1O` [Compound 156, 4-fluoro-5-(6-(4-hydroxy-3-methoxyphenyl)quinazolin-4-ylamino)-2-methylphenol]: the IC50 in the assay on MDA-MB-231 came out at 2800 ± 200 nM; against B-Raf it was 57.3 nM; in the assay with COLO205, 9600 ± 3800 nM; with A549, 1600 ± 400 nM; at B-Raf (V600E), 81.7 nM; against C-Raf, 301 nM. In the assay on A375, this compound registered an IC50 of 1900 ± 300 nM. Besides, the inhibition at 1 µM on B-Raf was found to be 92.4%.

`N#Cc1cccc(-c2ccc3ncnc(Nc4cccc5[nH]ncc45)c3c2)c1` [Compound 102, 3-(4-(1H-indazol-4-ylamino)quinazolin-6-yl)benzonitrile]: the IC50 was more than 50000 nM in the assay with MDA-MB-231; 134 nM against B-Raf; more than 50000 nM with COLO205; more than 50000 nM in the assay on A549; 199 nM against B-Raf (V600E); 294 nM on C-Raf. Further, the concentration for half-maximal inhibition (IC50) in the assay with A375 was more than 50000 nM. Besides, the inhibition at 1 µM at B-Raf amounted to 87%.

Consider `Nc1ccc(F)c(-c2ccc3nccc(Nc4cccc5[nH]ncc45)c3c2)c1` [Compound 137, 6-(5-amino-2-fluorophenyl)-N-(1H-indazol-4-yl)quinolin-4-amine], for which the IC50 in the assay on MDA-MB-231 stood at 19500 ± 2100 nM; against B-Raf, 149 nM; in the assay on COLO205, 8300 ± 400 nM; in the assay with A549, 10800 ± 700 nM; at B-Raf (V600E) it was 152 nM; at C-Raf, 1330 nM. This compound also yielded an IC50 in the assay with A375 of 23600 ± 1200 nM. Besides, the inhibition at 1 µM on B-Raf stood at 78.2%.

In the case of `NC(=O)c1cccc(-c2ccc3ncnc(Nc4cccc5[nH]ncc45)c3c2)c1` [Compound 97, 3-(4-(1H-indazol-4-ylamino)quinazolin-6-yl)benzamide], the IC50 in the assay with MDA-MB-231 is 12700 ± 2000 nM; on B-Raf it was 112 nM; with COLO205, 12700 ± 2100 nM; in the assay on A549, more than 50000 nM; against B-Raf (V600E), 151 nM; against C-Raf, 584 nM. For the same compound, the IC50 with A375 was 24500 ± 7100 nM. The inhibition at 1 µM on B-Raf came to 86.6%.

Turning to `COc1cc2ncnc(Nc3cccc(O)c3)c2cc1-c1ccc(O)cc1` [Compound 49, 3-(6-(4-hydroxyphenyl)-7-methoxyquinazolin-4-ylamino)phenol], the IC50 is more than 50000 nM in the assay on MDA-MB-231; 55.3 nM on B-Raf; more than 50000 nM in the assay on COLO205; more than 50000 nM in the assay with A549; 71.6 nM at B-Raf (V600E); 790 nM against C-Raf. In addition, the IC50 in the assay with A375 was more than 50000 nM. At B-Raf, the inhibition at 1 µM was determined as 90.3%.

Consider `COc1cc(-c2ccc3ncnc(Nc4cc(O)ccc4Cl)c3c2)ccc1O` [Compound 59, 4-(4-(2-chloro-5-hydroxyphenylamino)quinazolin-6-yl)-2-methoxyphenol], for which the IC50 in the assay with MDA-MB-231 was 900 ± 200 nM; against B-Raf, 36.5 nM; in the assay on COLO205, 4500 ± 600 nM; in the assay on A549, 600 ± 300 nM; on B-Raf (V600E), 64.7 nM; at C-Raf it was 290 nM. Moreover, it took 700 ± 100 nM to reach half-maximal inhibition in the assay on A375 (IC50). Moreover, the inhibition at 1 µM at B-Raf came out at 92.6%.

For `COc1cc(-c2ccc3ncnc(Nc4ccc(F)c(O)c4F)c3c2)ccc1O` [Compound 162, 2,6-difluoro-3-(6-(4-hydroxy-3-methoxyphenyl)quinazolin-4-ylamino)phenol], the IC50 with MDA-MB-231 worked out at 2100 ± 100 nM; against B-Raf, 2.9 nM; in the assay with COLO205, 5100 ± 1400 nM; in the assay with A549 it was 2400 ± 700 nM; against B-Raf (V600E) it was 4.5 nM; against C-Raf, 197 nM. Moreover, the IC50 with A375 was determined as 1500 ± 100 nM. Moreover, at B-Raf, the inhibition at 1 µM was found to be 94.6%.

With `COc1cc(-c2ccc3ncnc(Nc4cccc5[nH]ncc45)c3c2)ccc1F` [Compound 84, 6-(4-fluoro-3-methoxyphenyl)-N-(1H-indazol-4-yl)quinazolin-4-amine], the IC50 with MDA-MB-231 is 14800 ± 500 nM; on B-Raf, 172 nM; in the assay with COLO205 it was 11500 ± 1300 nM; in the assay on A549 it was 8900 ± 1300 nM; against B-Raf (V600E), 195 nM; at C-Raf, 757 nM. Also, the IC50 in the assay on A375 stood at 11500 ± 1900 nM. For the same compound, on B-Raf, the inhibition at 1 µM came out at 83.1%.

With `COc1cc(-c2ccc3nccc(Nc4cccc(O)c4)c3c2)ccc1O` [Compound 100, 4-(4-(3-hydroxyphenylamino)quinolin-6-yl)-2-methoxyphenol], the IC50 in the assay on MDA-MB-231 amounted to 5500 ± 500 nM; against B-Raf it was 21 nM; in the assay on COLO205, 5200 ± 200 nM; in the assay on A549 it was 1780 ± 200 nM; against B-Raf (V600E) it was 23 nM; against C-Raf, 136 nM. The same compound showed an IC50 with A375 of 1400 ± 400 nM. Moreover, the inhibition at 1 µM at B-Raf was determined as 95.8%.

As to `COc1ccc(-c2ccc3ncnc(Nc4cccc5[nH]ncc45)c3c2)cc1C=O` [Compound 98, 5-(4-(1H-indazol-4-ylamino)quinazolin-6-yl)-2-methoxybenzaldehyde], the IC50 came to 9600 ± 1600 nM in the assay with MDA-MB-231; 73.9 nM on B-Raf; 9600 ± 1600 nM in the assay with COLO205; 12700 ± 5300 nM in the assay on A549; 105 nM against B-Raf (V600E); 338 nM at C-Raf. The same compound registered an IC50 with A375 of 7200 ± 600 nM. In addition, the inhibition at 1 µM on B-Raf was determined as 92.5%.

Consider `Fc1ccc(-c2ccc3ncnc(Nc4cccc5[nH]ncc45)c3c2)cc1F` [Compound 85, 6-(3,4-difluorophenyl)-N-(1H-indazol-4-yl)quinazolin-4-amine], for which the IC50 is 23200 ± 2000 nM with MDA-MB-231; 174 nM against B-Raf; 15900 ± 4100 nM in the assay with COLO205; 14200 ± 800 nM in the assay on A549; 209 nM against B-Raf (V600E); 495 nM against C-Raf. In the assay on A375, this compound registered an IC50 of 11400 ± 3000 nM. Also, the inhibition at 1 µM at B-Raf was determined as 83%.

Regarding `NC(=O)c1cccc(-c2ccc3nccc(Nc4cccc5[nH]ncc45)c3c2)c1` [Compound 117, 3-(4-(1H-indazol-4-ylamino)quinolin-6-yl)benzamide], the IC50 is 13600 ± 900 nM in the assay with MDA-MB-231; 107 nM against B-Raf; 8900 ± 100 nM in the assay with COLO205; 23500 ± 500 nM in the assay on A549; 114 nM against B-Raf (V600E); 321 nM at C-Raf. The IC50 in the assay on A375 is 23700 ± 2400 nM. In addition, the inhibition at 1 µM on B-Raf was determined as 86.6%.

Consider `COc1cc(-c2ccc3ncnc(Nc4cc(O)ccc4C)c3c2)ccc1O` [Compound 154, 4-(4-(5-hydroxy-2-methylphenylamino)quinazolin-6-yl)-2-methoxyphenol], for which the IC50 in the assay on MDA-MB-231 came out at 1000 ± 100 nM; against B-Raf, 60 nM; with COLO205, 6400 ± 600 nM; with A549 it was 900 ± 500 nM; at B-Raf (V600E), 70.9 nM; against C-Raf, 590 nM. Further, in the assay with A375, the midpoint of inhibition, the IC50, lay at 1000 ± 200 nM. Also, on B-Raf, the inhibition at 1 µM amounted to 88.4%.

`COc1ccc(-c2ccc3nccc(Nc4cccc5[nH]ncc45)c3c2)cc1C=O` [Compound 116, 5-(4-(1H-indazol-4-ylamino)quinolin-6-yl)-2-methoxybenzaldehyde]: the IC50 is 6200 ± 400 nM in the assay on MDA-MB-231; 99.6 nM on B-Raf; 6300 ± 200 nM with COLO205; 6400 ± 700 nM in the assay on A549; 117 nM at B-Raf (V600E); 233 nM against C-Raf. Further, the concentration for half-maximal inhibition (IC50) in the assay on A375 stood at 5400 ± 700 nM. The inhibition at 1 µM at B-Raf worked out at 88.4%.

Consider `CCCS(=O)(=O)Nc1cccc(-c2ccc3ncnc(Nc4cccc5[nH]ncc45)c3c2)c1` [Compound 109, N-(3-(4-(1H-indazol-4-ylamino)quinazolin-6-yl)phenyl)propane-1-sulfonamide], for which the 50% inhibitory concentration (IC50) in the assay on MDA-MB-231 is 10100 ± 1100 nM; against B-Raf it was 126 nM; in the assay on COLO205, 13600 ± 1500 nM; in the assay on A549 it was 16900 ± 600 nM; against B-Raf (V600E), 164 nM; on C-Raf, 521 nM. In the assay on A375, this compound showed a concentration for half-maximal inhibition (IC50) of 14200 ± 1000 nM. Also, the inhibition at 1 µM on B-Raf stood at 85.1%.

On to `COc1cc(-c2ccc3ncnc(Nc4cccc5[nH]ncc45)c3c2)ccc1O` [Compound 51, 4-(4-(1H-indazol-4-ylamino)quinazolin-6-yl)-2-methoxyphenol], for which the IC50 with MDA-MB-231 is 1600 ± 400 nM; at B-Raf it was 121 nM; in the assay with COLO205 it was 7700 ± 300 nM; in the assay with A549 it was 1600 ± 300 nM; against B-Raf (V600E), 157 nM; on C-Raf, 404 nM. In the assay on A375, this compound showed a 50% inhibitory concentration (IC50) of 1400 ± 100 nM. In addition, the inhibition at 1 µM at B-Raf was determined as 86%.

As for `COc1cccc(-c2ccc3ncnc(Nc4cccc5[nH]ncc45)c3c2)c1F` [Compound 74, 6-(2-fluoro-3-methoxyphenyl)-N-(1H-indazol-4-yl)quinazolin-4-amine], the 50% inhibitory concentration (IC50) in the assay on MDA-MB-231 is more than 50000 nM; on B-Raf, 114 nM; in the assay with COLO205, more than 50000 nM; in the assay on A549, more than 50000 nM; on B-Raf (V600E), 139 nM; on C-Raf it was 751 nM. Also, the IC50 with A375 is more than 50000 nM. The inhibition at 1 µM on B-Raf came out at 91.2%.
